According to patent US20230159510A1, “NOVEL PRMT5 INHIBITORS” (AMGEN INC., priority 2020, published 2023):
Read-outs that look alike come from different tables or passages of the source.

Experiments:
HCT116 MTAP null cells = assay: HCT116 proliferation assay, MTAP null cells (CellTiter-Glo, 6 days); assay type: cell-based; settings: read-out: Protif_ HCT116-MTAP null IC50
How it was run: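 Luminescent viability signal was measured after continuous drug exposure. Before dosing, cells attached overnight (37° C, 5% CO2) in RPMI 1640 + 10% FBS. Dosing used 1:3 steps over 8 or 9 points, starting at 1 or 10 µM, with DMSO-only wells as control.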

PRMT5/MEP50 = PRMT5/MEP50 (Homo sapiens, UniProt O14744); assay: MTase-Glo methyl transferase assay, Method B (FL-Histone H2A, 1 µM MTA, 1 h pre-incubation); assay type: biochemical; design: purchased Reaction Biology Corp RD-11-292; settings: read-out: PRMT5 MTase Glo Ki (nM, Meth. B)
PRMT5/MEP50, sequence (O14744 2-637 limits assumed): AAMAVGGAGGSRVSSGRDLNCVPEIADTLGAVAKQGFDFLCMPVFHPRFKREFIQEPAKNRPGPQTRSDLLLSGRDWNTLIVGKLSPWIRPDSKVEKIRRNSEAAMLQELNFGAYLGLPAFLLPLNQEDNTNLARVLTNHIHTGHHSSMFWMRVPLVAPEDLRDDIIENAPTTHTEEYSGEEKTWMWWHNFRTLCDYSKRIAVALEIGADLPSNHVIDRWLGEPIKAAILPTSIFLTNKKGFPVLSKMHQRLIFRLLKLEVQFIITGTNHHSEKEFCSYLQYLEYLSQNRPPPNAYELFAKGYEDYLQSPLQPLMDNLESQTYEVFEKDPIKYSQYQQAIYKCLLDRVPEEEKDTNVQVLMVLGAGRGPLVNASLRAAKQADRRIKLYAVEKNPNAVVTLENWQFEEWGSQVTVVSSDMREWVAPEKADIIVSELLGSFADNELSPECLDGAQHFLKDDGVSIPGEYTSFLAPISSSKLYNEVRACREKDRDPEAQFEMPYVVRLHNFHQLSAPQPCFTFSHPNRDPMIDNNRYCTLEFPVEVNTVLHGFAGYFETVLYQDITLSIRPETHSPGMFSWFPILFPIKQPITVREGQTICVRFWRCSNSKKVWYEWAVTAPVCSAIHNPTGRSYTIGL
PRMT5/MEP50, sequence (Q9BQA1 2-342 partner limits assumed): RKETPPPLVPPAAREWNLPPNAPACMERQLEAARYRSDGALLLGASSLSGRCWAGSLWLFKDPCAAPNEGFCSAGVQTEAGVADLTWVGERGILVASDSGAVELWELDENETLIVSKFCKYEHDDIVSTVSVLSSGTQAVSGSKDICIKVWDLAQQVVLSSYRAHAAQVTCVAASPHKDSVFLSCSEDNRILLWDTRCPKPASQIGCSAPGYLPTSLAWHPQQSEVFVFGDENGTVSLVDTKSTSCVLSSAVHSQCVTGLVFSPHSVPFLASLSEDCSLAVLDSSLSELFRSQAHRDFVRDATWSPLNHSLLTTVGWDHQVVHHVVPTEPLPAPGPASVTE
Protocol: Method B: The PRMT5 inhibitory activity of test compounds was determined using the MTase-Glo™ assay (Promega), which monitors the product (S-adenosyl homocysteine or SAH) of methyltransferase reactions. The PRMT5 MTase-Glo assay was conducted in a 384-well white ProxiPlate (PerkinElmer) in a total volume of 16 µL. The PRMT5 enzymatic reaction (in 8 µL) contained 4 nM PRMT5/MEP50 (Reaction Biology Corp, catalog no.: RD-11-292), 5 µM S-adenosyl methionine (SAM, Promega), 2.5 µM FL-Histone H2A (BPS Bioscience, catalog no.: 52021), 1 µM 5′-methylthioadenosine (MTA, Sigma) and ½ log serially diluted compounds in a reaction buffer of 50 mM Tris (pH 8.0), 50 mM NaCl, 0.01% Tween 20, 0.01% BSA, and 1 mM TCEP. Test compounds were pre-incubated with PRMT5/MEP50, SAM, and MTA for 1 hour before addition of FL-Histone H2A to initiate the PRMT5 reaction. The reaction was allowed to proceed for 20 hours at room temperature and was then terminated by addition of 1 µL of 9X MTase-Glo™ Reagent (Promega). After a 30-minute incubation at room temperature, 8 µL of MTase-Glo™ Detection Solution (Promega) was added and the plate was incubated at room temperature for an additional 30 minutes. The light signal corresponding to the amount of SAH produced by the PRMT5 reaction was subsequently measured using an Envision multimode reader (PerkinElmer). IC50 and KI values were obtained by analyzing dose-response curves using GraphPad Prism®.

| Structure (SMILES) | IC50 (HCT116 MTAP null cells; HCT116-MTAP null, 144 h) [nM] | Ki (PRMT5/MEP50) [nM] | IC50 (HCT116 MTAP null cells) [nM] |
| --- | --- | --- | --- |
| Cc1cc2cc(C(=O)N(Cc3ccc4c(c3)CNC4=O)Cc3ccc(C(F)(F)F)cn3)ccc2nc1N [Example 636, 2-amino-3-methyl-N-[(1-oxoisoindolin-5-yl)methyl]-N-[[5-(trifluoromethyl)-2-pyridyl]methyl] quinoline-6-carboxamide] | 890 | 2.3 |  |
| C#CC(C)N(Cc1ccc(C(F)(F)F)cn1)C(=O)c1ccc2nc(N)c(C)cc2c1 (stereo not shown) [Example 656, 2-amino-3-methyl-N-(1-methylprop-2-ynyl)-N-[[5-(trifluoromethyl)-2-pyridyl]methyl] quinoline-6-carboxamide] | 210 | 5.28 |  |
| Cc1cc2cc(C(=O)N(Cc3ccc(O)cc3)Cc3ccnc4[nH]ccc34)ccc2nc1N [Example 688, 2-amino-N-[(4-hydroxyphenyl)methyl]-3-methyl-N-(1H-pyrrolo[2,3-b]pyridin-4-ylmethyl)quinoline-6-carboxamide] | 240 | 1.41 |  |
| Cc1cc2cc(C(=O)N(CCC3CC3)Cc3ccc(C(F)(F)F)cn3)ccc2nc1N [Example 695, 2-amino-N-(2-cyclopropylethyl)-3-methyl-N-[[5-(trifluoromethyl)-2-pyridyl]methyl] quinoline-6-carboxamide] | 760 | 6.3 |  |
| Cc1cc2cc(C(=O)N(Cc3ccc(C(F)(F)F)cn3)C(C)c3cccc(O)c3)ccc2nc1N (stereo not shown) [Example 663, 2-amino-N-[1-(3-hydroxyphenyl)ethyl] -3-methyl-N-[[5-(trifluoromethyl)-2-pyridyl]methyl] quinoline-6-carboxamide] | 37 | 1.7 |  |
| Cc1cc2cc(C(=O)N(Cc3ccc(N4CCCC4=O)cc3)Cc3ccc(C(F)(F)F)cn3)ccc2nc1N [Example 645, 2-amino-3-methyl-N-[[4-(2-oxopyrrolidin-1-yl)phenyl]methyl] -N-[[5-(trifluoromethyl)-2-pyridyl]methyl] quinoline-6-carboxamide] | > 1000 | 5.93 |  |
| Cc1cc2cc(C(=O)N(Cc3ccc(C(F)(F)F)cn3)Cc3ccc[nH]c3=O)ccc2nc1N [Example 627, 2-amino-3-methyl-N-((2-oxo-1,2-dihydropyridin-3-yl)methyl)-N-((5-(trifluoromethyl)pyridin-2-yl)methyl)quinoline-6-carboxamide] | 360 | 2.8 |  |
| Cc1cc2cc(C(=O)N(Cc3ccc(C(F)(F)F)cn3)C(C)CC#N)ccc2nc1N (stereo not shown) [Example 693, 2-amino-N-(2-cyano-1-methyl-ethyl)-3-methyl-N-[[5-(trifluoromethyl)-2-pyridyl]methyl] quinoline-6-carboxamide] | 97 | 6.14 |  |
| Cc1cc2cc(C(=O)N(Cc3ccc(O)c(F)c3)Cc3ccc(C(F)(F)F)cn3)ccc2nc1N [Example 662, 2-amino-N-[(3-fluoro-4-hydroxyphenyl)methyl] -3-methyl-N-[ [5-(trifluoromethyl)-2-pyridyl]methyl] quinoline-6-carboxamide] | 180 | 3.58 |  |
| COc1cccc2c1OCCC2N(Cc1ccc(C(F)(F)F)cn1)C(=O)c1ccc2nc(N)c(C)cc2c1 (stereo not shown) [Example 630, 2-amino-N-(8-methoxychroman-4-yl)-3-methyl-N-[[5-(trifluoromethyl)-2-pyridyl]methyl] quinoline-6-carboxamide] | 33 | 4.58 |  |
| Cc1cc2cc(C(=O)N(Cc3ccc(-c4cc[nH]n4)cc3)Cc3ccc(C(F)(F)F)cn3)ccc2nc1N [Example 647, 2-amino-3-methyl-N-[[4-(IH-pyrazol-3-yl)phenyl]methyl]-N-[[5-(trifluoromethyl)-2-pyridyl]methyl] quinoline-6-carboxamide] | 320 | 4.11 |  |
| Cc1cc2cc(C(=O)N(Cc3cccc(-n4cncn4)c3)Cc3ccc(C(F)(F)F)cn3)ccc2nc1N [Example 649, 2-amino-3-methyl-N-[[3-(1,2,4-triazol-1-yl)phenyl]methyl]-N-[[5-(trifluoromethyl)-2-pyridyl]methyl] quinoline-6-carboxamide] | 310 | 2.69 |  |
| Cc1cc2cc(C(=O)N(Cc3ccc(C(N)=O)nc3)Cc3ccc(C(F)(F)F)cn3)ccc2nc1N [Example 637, 2-amino-N-[(6-carbamoyl-3-pyridyl)methyl]-3-methyl-N-[[5-(trifluoromethyl)-2-pyridyl]methyl] quinoline-6-carboxamide] | > 1000 | 5.2 |  |
| Cc1cc2cc(C(=O)N(Cc3ccc(C(F)(F)F)cc3)Cc3c(F)cncc3F)ccc2nc1N [Example 685, 2-amino-N-[(3,5-difluoro-4-pyridyl)methyl]-3-methyl-N-[[4-(trifluoromethyl)phenyl]methyl] quino line-6-carboxamide] |  | 1.22 | 51 |
| Cc1cc2cc(C(=O)N(Cc3ccc(C(F)(F)F)cn3)C(C)C(C)C)ccc2nc1N (stereo not shown) [Example 642, 2-amino-N-(1,2-dimethylpropyl)-3-methyl-N-[[5-(trifluoromethyl)-2-pyridyl]methyl] quinoline-6-carboxamide] | 86 | 2.55 |  |
| Cc1cc2cc(C(=O)N(Cc3ccc(C(F)(F)F)cn3)C(C)c3ccc4c(c3)NC(=O)CO4)ccc2nc1N (stereo not shown) [Example 625, 2-amino-3-methyl-N-(1-(3-oxo-3,4-dihydro-2H-benzo[b][1,4]oxazin-6-yl)ethyl)-N-((5-(trifluoromethyl)pyridin-2-yl)methyl)quinoline-6-carboxamide] | 180 | 1.99 |  |
| Cc1cc2cc(C(=O)N(Cc3ccc(C(F)(F)F)cn3)CC3CCC(O)C3)ccc2nc1N (stereo not shown) [Example 677, 2-amino-N-[(3-hydroxycyclopentyl)methyl]-3-methyl-N-[[5-(trifluoromethyl)-2-pyridyl]methyl] quinoline-6-carboxamide] | 950 | 9.37 |  |
| Cc1cc2cc(C(=O)N(Cc3ccc(C(F)(F)F)cn3)Cc3cccnc3-n3cncn3)ccc2nc1N [Example 652, 2-amino-3-methyl-N-[[2-(1,2,4-triazol-1-yl)-3-pyridyl]methyl]-N-[[5-(trifluoromethyl)-2-pyridyl]methyl] quinoline-6-carboxamide] | 160 | 3 to 7 |  |
| Cc1cc2cc(C(=O)N(Cc3ccc(C(F)(F)F)cn3)Cc3ccnc4[nH]ccc34)cnc2nc1N [Example 635, 7-amino-6-methyl-N-(1H-pyrrolo[2,3-b]pyridin-4-ylmethyl)-N-[[5-(trifluoromethyl)-2-pyridyl]methyl]-1,8-naphthyridine-3-carboxamide] |  | 1.29 | 18 |
| Cc1cc2cc(C(=O)N(Cc3ccc(C(F)(F)F)cn3)Cc3ccnn3C)ccc2nc1N [Example 686, 2-amino-3-methyl-N-[(2-methylpyrazol-3-yl)methyl]-N-[[5-(trifluoromethyl)-2-pyridyl]methyl] quinoline-6-carboxamide] | 590 | 5.12 |  |
| Cc1cc2cc(C(=O)N(Cc3ccccc3O)Cc3ccnc4[nH]ccc34)ccc2nc1N [Example 690, 2-amino-N-[(2-hydroxyphenyl)methyl]-3-methyl-N-(1H-pyrrolo[2,3-b]pyridin-4-ylmethyl)quinoline-6-carboxamide] | 94 | 1.68 |  |
| Cc1cc2cc(C(=O)N(Cc3ccc(C(F)(F)F)cn3)C(C)c3cc[nH]c(=O)c3)ccc2nc1N (stereo not shown) [Example 664, 2-amino-3-methyl-N-[1-(2-oxo-1H-pyridin-4-yl)ethyl]-N-[[5-(trifluoromethyl)-2-pyridyl]methyl] quinoline-6-carboxamide] | 670 | 9.1 |  |
| Cc1cc2cc(C(=O)N(Cc3cccc(-n4ccnn4)c3)Cc3ccc(C(F)(F)F)cn3)ccc2nc1N [Example 651, 2-amino-3-methyl-N-[[3-(triazol-1-yl)phenyl]methyl] -N-[ [5-(trifluoromethyl)-2-pyridyl]methyl] quinoline-6-carboxamide] | 310 | 3 to 9 |  |
| Cc1cc2cc(C(=O)N(Cc3ccc(C(F)(F)F)cn3)C3CCc4cn[nH]c4C3)ccc2nc1N (stereo not shown) [Example 671, 2-amino-3-methyl-N-(4,5,6,7-tetrahydro-1 H-indazol-6-yl)-N-[[5-(trifluoromethyl)-2-pyridyl]methyl] quinoline-6-carboxamide] | 180 | 6.82 |  |
| Cc1cc2cc(C(=O)N(Cc3ccc(C(F)(F)F)cn3)C3Cc4ccccc4C3O)ccc2nc1N (stereo not shown) [Example 674, 2-amino-N-(1-hydroxyindan-2-yl)-3-methyl-N-[[5-(trifluoromethyl)-2-pyridyl]methyl] quinoline-6-carboxamide] | 510 | 15.3 |  |
| Cc1cc2cc(C(=O)N(Cc3ccc(C(F)(F)F)cn3)C(C)C(C)O)ccc2nc1N (stereo not shown) [Example 641, 2-amino-N-(2-hydroxy-1-methylpropyl)-3-methyl-N-[[5-(trifluoromethyl)-2-pyridyl]methyl] quinoline-6-carboxamide] | 920 | 13.1 |  |
